Reference: patent publication US20150025143A1, “BETA-HYDROXY-BETA-METHYLBUTYRIC ACID FOR IMPROVING GLUCOSE TOLERANCE” (ABBOTT LABORATORIES, priority 2012, published 2015)

Columns and labels:
C57BL/6J mice = test: oral glucose tolerance after nine weeks of supplemented feeding and exercise; assay type: in vivo; conditions: 3.4 mg/g of pediatric nutritional supplement, fed nine weeks with exercise; oral glucose 2 g/Kg; compared to rodent pellet feed control, pediatric nutritional supplement control and both leucine groups (5 and 10 mg/g); FIG. 1
Description: In this Example, the effect of (1) HMB and (2) leucine on muscle glucose tolerance was analyzed in an in vivo study.
C57BL/6J mice (Charles River Laboratories, Wilmington Mass.), 21 days post-weaning, were fed either a commercially available pediatric nutritional supplement supplemented with either (1) calcium HMB or (2) leucine, and required to exercise, for nine weeks. […]
Following the nine weeks, the mice were kept overnight for fasting and body weight was recorded. […] Before glucose administration, the blood glucose was measured by tail snip using one-touch ultra Glucometer and glucose strips.
All test groups were orally administered the glucose solution at a concentration of 2 g/Kg body weight. […] After oral glucose administration, blood glucose levels were analyzed at different time points (i.e., 15, 30, 60, 90, and 120 minutes) using Glucometer and glucose strips.

[1] = tested on: Spragley-Dawley (SD) rats; test: effect of an acute oral dose given before a glucose load on the blood glucose spike (lowering glycemic index); assay type: in vivo; conditions: given 30 minutes before glucose load of approximately 2 g/kg, FIG. 2
Description: In this Example, the effect of calcium HMB on lowering glycemic index was evaluated in an in vivo study. Particularly, an acute oral dose of calcium HMB was evaluated to determine whether, if given prior to a glucose load, the dose was able to blunt the initial glucose spike.
Spragley-Dawley (SD) rats (21 days post weaning) (n=7 or 8) were fed an oral dose of calcium HMB at a concentration of: 100 mg/kg (mpk), 300 mpk or 1000 mpk. After thirty minutes, the rats were then orally fed a glucose load consisting of a glucose solution having a concentration of approximately 2 g/kg body weight. A control group (n=4) was not fed the oral dose of calcium HMB prior to the glucose load.
Blood glucose levels of the rats were measured by tail snip using one-touch ultra Glucometer and glucose strips at different time points (0, 15, 30, 45, 60, 90, and 120 minutes).

`CC(C)(O)CC(=O)O.[Ca]` [Calcium HMB, calcium beta-hydroxy-beta-methylbutyric acid] was tested, and the “glucose tolerance (blood glucose after oral glucose administration)” value (C57BL/6J mice) was “improved glucose tolerance”, the “glucose spike at 15 minutes post dosing” value ([1]; 1000 mpk oral) was “significantly reduced glucose spike” and the “glucose spike at early time points” value ([1]; high oral doses) was “significantly blunted glucose spike”.
